The test system of data set [1] is rats.
Data set [2] deals with PAF-induced hypotension. As to the kind of experiment: Inhibitory action on PAF-induced hypotension (oral administration). The class given is in vivo, rat (SD (Jcl)). Conditions: Rattus norvegicus; for inhibition in vivo at 30 mg/kg: 30 mg/kg oral; for inhibition in vivo at 3 mg/kg: 3 mg/kg oral; for inhibition in vivo at 10 mg/kg: 10 mg/kg oral. How it is done: SD (Jcl) male rats of 6 to 8 week old were applied with cannulation into the femoral artery and vein under anesthesia with pentobarbital. The animals were fasted overnight, then subjected to the experiment. A tansducer (MPU-0.5-290-0-III, TOYO BALDWIN, Japan) was connected with the artery cannula, and blood pressure was continuously measured by means of polygraph (San-ei, Japan). When the blood pressure became constant, PAF (0.5 to 1.0 μg/kg, 250 μl/kg) dissolved in a physiological saline was injected through the venous cannula to lower the blood pressures by 30 to 45 mmHg. Thirty minutes later, PAF was injected again, and the average of lowered values of blood pressure (twice) was used as the control. After restoration of blood pressure to the initial level, test samples prepared by dissolving or suspending the drug in a physiological saline suspension of gum arabic (5%) were orally administered (5 ml/kg), then, after 1, 2 and 4 hours, PAF was injected. The rate of inhibition of lowering of blood pressure after administration of the test samples against the control was evaluated.

In data set [3] the test system is PAF-induced platelet aggregation. The data set can be described thus: Inhibitory action on PAF-induced platelet aggregation (turbidimetry, platelet rich plasma). As to conditions: Oryctolagus cuniculus, Concentration of test compound: 3 × 10^-5 M. Type of data set: cell-based, rabbit (New Zealand white). How it is done: Blood was collected from the hearts of conscious New Zealand white male rabbits weighing 2 to 3 Kg using citric acid as an anticoagulant (one volume part of 3.15% citric acid relative to 9 volume parts of the whole blood). The blood was subjected to a centrifuge at 800 rpm for 10 minutes to obtain platelet rich plasma (PRP). The remaining blood after collecting the PRP was subjected to a centrifuge at 3000 rpm for 10 minutes to obtain platelet poor plasma (PPP). PRP was diluted with PPP to adjust the number of platelets to about 500,000/μl. Platelet aggregation was examined by means of turbidimetry [Born, Nature, 194, 927-929 (1962)] with 8 channel aggregometer (NBS HEMA TRACER 6 Nikoh, Bio-science, Japan). More concretely, PRP (250μl) was kept warm (37° C.) for 3 minutes in a silicon-processed cuvette, to which was added a test sample (25μl) dissolved in a physiological saline or in 10mM dimethlsulfoxide followed by dilution with a physiological saline. Two minutes later, PAF (25μl, 3×10^-9 -1×10^-8 M), dissolved in a physiological saline, was added and then the maximum aggregation rate was determined. As the control, physiological saline without test sample was added to the cuvette, and the inhibitory rate thereon was determined.
Incidentally, Compound B means N,N'-bis(3,4,5-trimethoxybenzoyl)piperazine (a known compound).

Where two headings read alike, the source gives them in different places.

Consider `COc1cc(C(=O)N2CCN(C(=O)c3cc(OC)c(OC)c(OC)c3)CC2)cc(OC)c1OC` [Compound B, N,N'-bis(3,4,5-trimethoxybenzoyl)piperazine, reference compound], for which the “LD50 (estimated)” value in data set [1] (oral, rats, single dose) is recorded as about 1000 mg/kg. In data set [1] (rat, in vivo, po, 1000 mg/kg), the survival entry is “all of the animals survived”. Besides, the inhibition in vivo at 30 mg/kg in data set [2] (after 1 hr.) was 86%; in data set [2] (after 2 hrs.), 63%; in data set [2] (after 4 hrs.) it was 26%. The same molecule came in with an inhibition at 30 µM in data set [3] of 100%.

On to `COc1cc(CN2CCN(C(=O)c3cc4ccccc4o3)CC2)cc(OC)c1OC.Cl` [Working Example 7, 1-(2-benzofuranylcarbonyl)4-(3,4,5-trimethoxybenzyl)piperazine hydrochloride], for which, in data set [1] (single oral dose 1000 mg/kg, rats, one week observation), the survival entry is given as “all of the animals survived”.

Molecule `COc1cc(CN2CCN(C(=O)c3cc(OC)c(OC)c(OC)c3)CC2)cc(OC)c1OC` [compound 2] displayed an inhibition at 30 µM in data set [3] of 100%.

For the molecule `CCCOc1c(OC)cc(C(=O)N2CCN(Cc3cc(OC)c(OC)c(OC)c3)CC2)cc1[N+](=O)[O-]` [compound 3], the inhibition in vivo at 30 mg/kg in data set [2] (after 1 hr.) is 86%; in data set [2] (after 2 hrs.) it was 63%; in data set [2] (after 4 hrs.), 26%. The molecule also came in with an inhibition at 30 µM in data set [3] of 100%.

For `COc1ccc(C(=O)N2CCN(Cc3cc(OC)c(OC)c(OC)c3)CC2)cc1OC` [compound 4], the inhibition in vivo at 30 mg/kg in data set [2] (after 1 hr.) is 64%; in data set [2] (after 2 hrs.) it was 32%; in data set [2] (after 4 hrs.), 22%.

`CCCCOc1c(OC)cc(C(=O)N2CCN(C(=O)c3cc(OC)c(OC)c(OC)c3)CC2)cc1[N+](=O)[O-]` [compound 5]: the inhibition in vivo at 30 mg/kg came to 91% in data set [2] (after 1 hr.), 93% in data set [2] (after 2 hrs.) and 88% in data set [2] (after 4 hrs.).

In data set [3], `COc1cc(CN2CCN(C(=O)C3=Cc4cc5c(cc4CC3)OCO5)CC2)cc(OC)c1OC` [compound 6] registered an inhibition at 30 µM of 93%.

As for `COc1cc(CN2CCN(C(=O)c3cc4ccccc4o3)CC2)cc(OC)c1OC` [compound 7], the inhibition in vivo at 30 mg/kg turned out to be 4% in data set [2] (after 1 hr.), 15% in data set [2] (after 2 hrs.) and 25% in data set [2] (after 4 hrs.). This molecule also registered an inhibition at 30 µM in data set [3] of 74%.

In data set [3], `COc1cc(CN2CCN(C(=O)c3cccnc3)CC2)cc(OC)c1OC` [compound 8] came in with an inhibition at 30 µM of 63%.

In data set [3], `COc1cc(CN2CCN(C(=O)c3nc4ccccc4s3)CC2)cc(OC)c1OC` [compound 9] displayed an inhibition at 30 µM of 52%.

Consider `COc1cc(CN2CCN(C(=O)c3cc4ccccc4oc3=O)CC2)cc(OC)c1OC` [compound 12], for which the inhibition in vivo at 30 mg/kg in data set [2] (after 1 hr.) was 65%; in data set [2] (after 2 hrs.), 40%; in data set [2] (after 4 hrs.) it was 24%. Further, the inhibition at 30 µM in data set [3] came to 78%.

For `COc1cc(CN2CCN(C(=O)c3ccsc3)CC2)cc(OC)c1OC` [compound 13], the inhibition at 30 µM in data set [3] was determined as 46%.

In data set [3], `COc1cc(CN2CCN(C(=O)c3cnc4ccccc4c3)CC2)cc(OC)c1OC` [compound 16] returned an inhibition at 30 µM of 58%.

For `COc1cc(CN2CCN(C(=O)c3ccc4c(c3)OCCO4)CC2)cc(OC)c1OC` [compound 17], in data set [3], the inhibition at 30 µM is 88%.

As for `COc1ccc2c3c(oc2c1)CCC(C(=O)N1CCN(Cc2cc(OC)c(OC)c(OC)c2)CC1)=C3` [compound 18], the inhibition at 30 µM in data set [3] turned out to be 84%.

In turn, `COc1cc(CN2CCN(C(=O)C3CCc4sc5ccccc5c4C3O)CC2)cc(OC)c1OC` (centres unmarked) [compound 19] registered an inhibition at 30 µM in data set [3] of 64%.

As to `COc1cc(CN2CCN(C(=O)c3ccc4c(c3)C(=O)C3(CC3)O4)CC2)cc(OC)c1OC` [compound 21], testing at 30 µM in data set [3] gave an inhibition of 100%.

For `COc1cc(CN2CCN(C(=O)c3ccc4c(c3)C(O)C3(CC3)O4)CC2)cc(OC)c1OC` (centres unmarked) [compound 22], the inhibition in vivo at 30 mg/kg came out at 94% in data set [2] (after 1 hr.), 80% in data set [2] (after 2 hrs.) and 2% in data set [2] (after 4 hrs.). Also, 30 µM produced 100% inhibition in data set [3].

In the case of `COc1cc2c(cc1OC)SCCC(C(=O)N1CCN(Cc3cc(OC)c(OC)c(OC)c3)CC1)=C2` [compound 23], the inhibition in vivo at 30 mg/kg in data set [2] (after 1 hr.) stood at 94%; in data set [2] (after 2 hrs.), 94%; in data set [2] (after 4 hrs.), 67%. In data set [3], this molecule had an inhibition at 30 µM of 74%.

`COc1cc2c(cc1OC)SCCC(C(=O)N1CCN(C(=O)c3cc(OC)c(OC)c(OC)c3)CC1)=C2` [compound 24]: the inhibition in vivo at 30 mg/kg in data set [2] (after 1 hr.) worked out at 94%; in data set [2] (after 2 hrs.) it was 91%; in data set [2] (after 4 hrs.), 78%. In data set [3], this molecule had an inhibition at 30 µM of 100%.

Turning to `COc1cc2c(cc1OC)OCCC(C(=O)N1CCN(Cc3cc(OC)c(OC)c(OC)c3)CC1)=C2` [compound 25], the figures for the inhibition in vivo at 30 mg/kg in data set [2] (after 1 hr.), in data set [2] (after 2 hrs.) and in data set [2] (after 4 hrs.) were 100%, 97% and 70%, respectively. In data set [3], the inhibition at 30 µM is 100%.

In data set [2] (after 1 hr.), `COc1cc2c(cc1OC)OCCC(C(=O)N1CCN(C(=O)c3cc(OC)c(OC)c(OC)c3)CC1)=C2` [compound 26] yielded an inhibition in vivo at 3 mg/kg of 74%, an inhibition in vivo at 10 mg/kg of 100% and an inhibition in vivo at 30 mg/kg of 98%. In data set [2] (after 2 hrs.), this molecule returned an inhibition in vivo at 3 mg/kg of 70%, an inhibition in vivo at 10 mg/kg of 100% and an inhibition in vivo at 30 mg/kg of 99%. Also, in data set [2] (after 4 hrs.), at 3 mg/kg the inhibition in vivo was 44%, testing at 10 mg/kg gave an inhibition in vivo of 87% and 30 mg/kg produced 100% inhibition in vivo. The same molecule returned an inhibition at 30 µM in data set [3] of 100%.

As for `COc1ccc2c(c1)C=C(C(=O)N1CCN(C(=O)c3cc(OC)c(OC)c(OC)c3)CC1)CCO2` [compound 27], the inhibition in vivo at 10 mg/kg was determined as 79% in data set [2] (after 1 hr.), 75% in data set [2] (after 2 hrs.) and 62% in data set [2] (after 4 hrs.). In addition, the inhibition in vivo at 30 mg/kg is 100% in data set [2] (after 1 hr.), 100% in data set [2] (after 2 hrs.) and 86% in data set [2] (after 4 hrs.).

On to `COc1ccc2c(c1)OCCC(C(=O)N1CCN(C(=O)c3cc(OC)c(OC)c(OC)c3)CC1)=C2` [compound 28], for which the inhibition in vivo at 30 mg/kg in data set [2] (after 1 hr.) was found to be 92%; in data set [2] (after 2 hrs.), 91%; in data set [2] (after 4 hrs.) it was 92%.

In the case of `COc1cc2c(cc1OC)OCCC(C(=O)N1CCN(C(=S)c3cc(OC)c(OC)c(OC)c3)CC1)=C2` [compound 29], the values for the inhibition in vivo at 3 mg/kg in data set [2] (after 1 hr.), in data set [2] (after 2 hrs.) and in data set [2] (after 4 hrs.) were 67%, 71% and 61%, respectively. The inhibition in vivo at 30 mg/kg in data set [2] (after 1 hr.), in data set [2] (after 2 hrs.) and in data set [2] (after 4 hrs.) was 100% in each case.

Regarding `COc1cc2c(cc1OC)OCCC(C(=O)N1CCN(C(=O)c3cc(OC)c(OC)c(OC)c3)CC1)C2` (centres unmarked) [compound 33], the results for the inhibition in vivo at 30 mg/kg in data set [2] (after 1 hr.), in data set [2] (after 2 hrs.) and in data set [2] (after 4 hrs.) were 99%, 99% and 79%, respectively. The same molecule yielded an inhibition at 30 µM in data set [3] of 47%.

By inhibition in vivo is commonly meant the drop in the measured response relative to a control, in per cent. Low values mean little suppression, high ones strong suppression. Broadly, the inhibition is the share of the control response that was lost under treatment. Lower therefore signals a response near the control.

Values taken from US4937246A, “PAF antagonist, 1,4-disubstituted piperazine compounds and production thereof” (priority 1987, dated 1990).
